Key:
[1] = tested on: GFPβ1-10 expressing H1299 cells; test: live cell split-GFP fluorescence complementation transduction assay (FACS); type: cell-based, human; conditions: GFPβ1-10 H1299 cells
Method: (§1) All transduction experiments were performed in 48-well plates. An optimized protocol was established. First, 15,000 or 20,000 cells were plated in each well. Next day, the indicated peptides were pipetted into microcentrifuge tubes. Transduction buffer (60% OptiMEM and 40% PBS) was added to peptide (100 μl total volume), directly mixed by pipetting up and down five times and then immediately transferred to cells. […] All cells were trypsinized and collected in 250 μl OptiMEM without phenol red and analyzed by FACS (GFP, FSC/SSC). 4,000 viable cells were analyzed per sample. Data is presented as fold change in fluorescence compared to non-treated cells.

[2] = tested on: GFPβ1-10 expressing MDA-MB-231 breast carcinoma cells; test: split-GFP complementation transduction assay (FACS); type: cell-based, human
Method: as §1

[3] = tested on: GFPβ1-10 expressing HaCaT keratinocytes; test: as above; type: cell-based, human; conditions: dose-dependent analysis by FACS, EED peptide compared to parental GFPβ11-(S-S)-TAT, triplicate samples
Method: as §1

[4] = tested on: GFPβ1-10 expressing MCF7 breast carcinoma cells; test: as above; type: cell-based, human; conditions: dose-dependent analysis by FACS, EED peptide compared to parental GFPβ11-(S-S)-TAT, triplicate samples
Method: as §1

[5] = tested on: GFPβ1-10 expressing H1299 cells
Method: (§2) Cell morphology was determined by FACS analysis of FSC and SSC. Gates were set manually for viable cells using untreated control cells as reference and the fraction of viable cells compared to non-viable cells was determined for each sample. Data are presented as the relative difference compared to non-treated control cells. Viable cells per sample were determined by measuring number of viable cells that were analyzed per second by FACS. Gates for viable cells were set manually using untreated control cells as reference. Data are presented as the relative difference compared to untreated control cells.

[6] = tested on: GFPβ1-10 expressing HaCaT keratinocytes
Method: as §2

[7] = tested on: GFPβ1-10 expressing MDA-MB-231 breast carcinoma cells
Method: as §2

[8] = tested on: GFPβ1-10 expressing MCF7 breast carcinoma cells
Method: as §2

H1299 G1-10 cells = test: macropinocytosis assay (70-kDa neutral dextran-Texas Red uptake, FACS); type: cell-based, human; conditions: 10 μM peptide, 70 min, 70-kDa neutral dextran-Texas Red 100 μg/mL, 37°, triplicate
Method: 3,000 H1299 G1-10 cells were plated in a 48-well plate and treated with 10 μM TAT-P6-GG, TAT-P6-GWWG or TAT-P6-GFWFG peptides for 70 min in the presence of 70-kDa neutral dextran-Texas Red (100 μg/mL; Invitrogen) at 37° in triplicate. Cells were washed, trypsinized and analyzed by FACS (>2,000 cells per sample).

Molecule: CCN(CC)CCCC(C)Nc1ccnc2cc(Cl)ccc12 (centres unmarked) [Chloroquine, reference compound]
- increase in GFP fluorescence of GFPβ11-(S-S)-TAT treated cells on addition of Chloroquine ([1]; low concentration of GFPβ11-(S-S)-TAT peptide plus 100 μM Chloroquine): ~ 4 fold

Molecule: CCN(c1nc(N)c(C(=O)NC(=N)N)nc1Cl)C(C)C [EIPA, reference compound]
- effect of macropinocytosis inhibitor on GFP fluorescence from GFPβ11-TAT, in words ([2]; MDA-MB-231c#G3 pre-treated with 80 μM EIPA, transduced with 60 μM GFPβ11-TAT with 80 μM EIPA for 40 or 80 min, FACS, triplicate): reduced GFP fluorescence to near background levels

Molecule: GFPβ11-(S-S)-TAT-P6-GFWFG [compound 6]
- increase in GFP fluorescence compared to the parental GFPβ11-(S-S)-TAT peptide ([1]; stated in text for Fig. 4b-e): five-fold
- GFP complementation fluorescence / endosomal escape, in words [3]: significantly enhanced endosomal escape
- GFP complementation fluorescence / endosomal escape, in words [4]: significantly enhanced endosomal escape
- GFP complementation fluorescence / endosomal escape, in words ([2]; MDA-MB-231, dose-dependent analysis by FACS, EED peptide compared to parental GFPβ11-(S-S)-TAT, triplicate samples): significantly enhanced endosomal escape
- Cell Viability 15 uM [5]: 0.97
- Cell Viability 30 uM [5]: 0.97
- Cell Viability 45 uM [5]: 0.90
- cytotoxicity, in words [6]: non-cytotoxic
- cytotoxicity, in words [7]: non-cytotoxic
- cytotoxicity, in words [8]: non-cytotoxic

Molecule: GFPβ11-(S-S)-TAT-P6-GWGGWG [compound 8]
- enhancement of GFP fluorescence compared to the -GWWG motif, in words [1]: decreased the enhancement significantly
- Cell Viability 15 uM [5]: 0.96
- Cell Viability 30 uM [5]: 0.98
- Cell Viability 45 uM [5]: 0.97

Molecule: GFPβ11-(S-S)-TAT-P6-GWWWG [compound 9]
- Cell Viability 15 uM [5]: 0.96
- Cell Viability 30 uM [5]: 0.42
- Cell Viability 45 uM [5]: 0.18

Molecule: TAT-P6-GFWFG [TAT peptide with PEG6-GFWFG endosomal escape domain]
- stimulation of macropinocytosis, in words (H1299 G1-10 cells): stimulate macropinocytosis to a similar extent

From publication PMC5015074, “Enhancing Endosomal Escape for Intracellular Delivery of Macromolecular Biologic Therapeutics” (Scientific Reports, 2016)
